# From patent publication US20250136991A1, “METHOD OF MAKING BONE AND CARTILAGE” (priority 2022, published 2025)
# Peptide text beside a SMILES is read from it. * marks the point of attachment. Cbz = O=C(OCc1ccccc1)*
# Tests used:
# [1] = tested on: Mast4; assay: Mast4 degradation (cycloheximide chase) in Mast4-PDZ-overexpressing C3H10T1/2 cells with CHIR-99021; assay type: cell-based, murine; set-up: dose or concentration left out as unconfirmed; settings: (FIG. 22d)
# Excerpt: FIGS. 22a-22e show Mast4 induction during osteogenesis and GSK-3b regulation of Mast4 expression. (a) The schematic representation of osteogenic differentiation of C3H10T1/2 cells. (b) The indicated C3H10T1/2 cells were differentiated into osteoblasts for 10 days, followed by Alizarin Red S staining. (c) C3H10T1/2 cells were differentiated into osteoblasts for 10 days, followed by western blot analysis for the expression of Mast4 and key Wnt signaling molecules. (d) Mast4-PDZ-overexpressing C3H10T1/2 cells were treated with cycloheximide (CHX; […]) for the indicated time in the absence or presence of CHIR-99021 ([…]). (e) The wild-type and GSK-3b-depleted HA-Mast4-PDZ-overexpressing C3H10T1/2 cells were treated with MG-132 ([…] for 4 h) and CHIR-99021 ([…]). (b-d) The representative result were obtained from at least three separate experiments.
# For the immunoprecipitation assay, cell extracts were incubated with the indicated primary antibodies overnight at 4° C. Antibody-bound proteins were precipitated with Dynabeads Protein G (Invitrogen). Cells were lysed in a RIPA buffer containing protease inhibitor cocktail (Complete; Roche). Samples were separated by SDS-PAGE, followed by electrotransfer to polyvinylidene difluoride membranes (PVDF; Millipore). […] All signals were detected by Amersham Imager 600 (GE Healthcare Life Sciences).
# [2] = tested on: Mast4; assay: Mast4-PDZ expression in C3H10T1/2 cells transfected with Mast4-PDZ and GSK-3β, CHIR-99021 treatment (western blot); assay type: cell-based, murine; settings: CHIR-99021 10 μM for 9 h (FIG. 4d)
# Experimental: Cell lysates were immunoprecipitated with Flag antibody and immunoblotted with the indicated antibodies. k MC3T3-E1 cells were transfected with Mast4-PDZ WT and Δ632-636, followed by treatment of Wnt3a conditioned medium (2.5 h). l 6xOSE-Luc, Mast4-PDZ WT and Δ632-636 were transfected to C3H10T1/2 cells, followed by treatment of Wnt3a conditioned medium (18 h). […] Unpaired two-tailed Student's t test (P<0.05) with Benjamini-Hochberg correction for multiple tests was conducted for all statistical analyses. b-k The representative results were obtained from at least three independent experiments. TCL: total cell lysates.
# For the immunoprecipitation assay, cell extracts were incubated with the indicated primary antibodies overnight at 4° C. Antibody-bound proteins were precipitated with Dynabeads Protein G (Invitrogen). Cells were lysed in a RIPA buffer containing protease inhibitor cocktail (Complete; Roche). Samples were separated by SDS-PAGE, followed by electrotransfer to polyvinylidene difluoride membranes (PVDF; Millipore). The membrane was blocked for 1 h at room temperature and incubated overnight at 4° C. with the primary antibodies. Horseradish peroxidase-conjugated antibodies (Millipore) were used as secondary antibodies. The peroxidase reaction products were visualized with WESTZOL (Intron). All signals were detected by Amersham Imager 600 (GE Healthcare Life Sciences).
# [3] = tested on: Sox9; assay: Mast4-induced Sox9 degradation in C3H10T1/2 cells with MG-132 treatment (western blot); assay type: cell-based, murine; settings: C3H10T1/2 cells transfected with Myc-Sox9 and Mast4-PDZ, MG-132 10 mM for 6 h (FIG. 16e)
# Experimental: (a) The indicated C3H10T1/2 cells were differentiated into chondrocytes for 6 days, followed by Sox9 ChIP on the Col2a1 gene. (b) 4xCol2a1-luc was transiently overexpressed in LPCX control and Mast4 PDZ-overexpressing C3H10T1/2 cells, followed by TGF-b1 treatment (3 ng/ml for 24 h). (a and b) Data are representative mean±SD of three independent experiments, each conducted in triplicate (n=3). Unpaired two-tailed Student's t test (P<0.05) with Benjamini-Hochberg correction for multiple tests was conducted for all statistical analyses. P values versus WT. (c) Full-length (HA-Mast4-FULL) and truncated Mast4 (HA-Mast4-PDZ) together with siMAST4 (50 pmol) that targets exogenous Mast4 (human) were co-transfected with Myc-Sox9 into C3H10T1/2 cells. Due to inefficient detection of full length Mast4 with HA antibody, Mast4 antibody which recognizes the C-terminus was used. (d) The indicated C3H10T1/2 cells were differentiated to chondrocytes for 6 days, followed by MG-132 ([…] for 6 h) treatment. Endogenous Sox9 was immunoprecipitated, and the complexes were analyzed by western blot using phospho-serine and Sox9 antibodies. […]
# (§1) For the immunoprecipitation assay, cell extracts were incubated with the indicated primary antibodies overnight at 4° C. […] All signals were detected by Amersham Imager 600 (GE Healthcare Life Sciences).
# [4] = molecular target: Mast4-PDZ P628A/Y634A (UniProt O15021)
# [5] = tested on: Mast4; assay: Mast4 expression in human primary chondrocytes treated with TGF-β1; assay type: cell-based; settings: TGF-β1 5 ng/ml for 24 h and 48 h (FIG. 3g)
# Experimental: (§2) FIGS. 3a-3g show TGF-β1-induced suppression of Mast4 enhances chondrogenesis by increasing Sox9-Smad3 association. a Sox9 and Smad3 were co-transfected to wild-type and Mast4-depleted C3H10T1/2 cells, followed by TGF-β1 treatment (5 ng/ml for 30 minutes). Sox9 was immunoprecipitated using HA antibody. Band intensities representing GFP-Smad3 and HA-Sox9 expression level in the immunoprecipitates were converted by densitometry using ImageJ software into the ratio of Smad3 to Sox9. Data are reported as mean±SD of three independent experiments (n=3). Unpaired two-tailed Student's t test (P<0.05) was conducted for statistical analysis. b Smad3 ChIP on Col2a1 gene assay was performed in differentiating C3H10T1/2 cells for 6 days. c Mast4 expression was examined by western blot and RT-PCR of C3H10T1/2 cells treated with TGF-β1 for 48 h. d Luciferase assay was conducted in undifferentiated C3H10T1/2 cells. Vactosertib (0.5 μM) was pre-treated for 2 h prior to TGF-β1 (5 ng/ml) treatment for 24 h. e Smad3 ChIP assay on Mast4 gene was conducted in C3H10T1/2 cells undergoing chondrogenic differentiation for 6 days. […]
# [6] = tested on: Mast4; assay: Mast4 expression by western blot and RT-PCR in C3H10T1/2 cells treated with TGF-β1; assay type: cell-based, murine; settings: TGF-β1 for 48 h (FIG. 3c)
# Experimental: FIGS. 3a-3g show TGF-β1-induced suppression of Mast4 enhances chondrogenesis by increasing Sox9-Smad3 association. a Sox9 and Smad3 were co-transfected to wild-type and Mast4-depleted C3H10T1/2 cells, followed by TGF-β1 treatment (5 ng/ml for 30 minutes). Sox9 was immunoprecipitated using HA antibody. Band intensities representing GFP-Smad3 and HA-Sox9 expression level in the immunoprecipitates were converted by densitometry using ImageJ software into the ratio of Smad3 to Sox9. Data are reported as mean±SD of three independent experiments (n=3). […]
# Total RNA was prepared using EasyBlue (Boca Scientific). […] Quantitative real-time PCR was performed using Power SYBR Green PCR Master Mix (Applied Biosystems) on the QuantStudio 5 Real-Time PCR Instrument (Applied Biosystems). The mRNA levels of various genes were measured in triplicate and normalized with Gapdh. […]
# as §1
# [7] = tested on: Mast4 promoter; assay: Smad3 ChIP assay on Mast4 gene in differentiating C3H10T1/2 cells; assay type: cell-based, murine; settings: 6 days chondrogenic differentiation, TGF-β1 5 ng/ml for 48 h (FIG. 3e, FIG. 20)
# Experimental: as §2
# [8] = tested on: Mast4 promoter; assay: Mast4 promoter luciferase assay in undifferentiated C3H10T1/2 cells; assay type: cell-based, murine; settings: TGF-β1 5 ng/ml for 24 h (FIG. 3d)
# Experimental: as §2, with “cells.” for “cells. Vactosertib (0.5 μM) was pre-treated for 2 h prior to TGF-β1 (5 ng/ml) treatment for 24 h. e Smad3 ChIP assay on Mast4 gene was conducted in C3H10T1/2 cells undergoing chondrogenic differentiation for 6 days.”
# C3H10T1/2 cells were transiently transfected with 4xCol2a1-luc, Smad3/4-responsive promoter (CAGA)12-luc, SBE-luc, 6xOSE-luc, MAST4-promoter luciferase report plasmids, HA-MAST4 PDZ, Myc-Sox9 WT/S494A/S494D plasmids using polyethylenimine (Polysciences). […] The luciferase activities were analyzed using the Luciferase Assay System kit (Promega) according to the manufacturer's protocol. […]
# Mast4-PDZ P628A/Y634A, sequence (O15021 whole entry P628A/Y634A, looked up): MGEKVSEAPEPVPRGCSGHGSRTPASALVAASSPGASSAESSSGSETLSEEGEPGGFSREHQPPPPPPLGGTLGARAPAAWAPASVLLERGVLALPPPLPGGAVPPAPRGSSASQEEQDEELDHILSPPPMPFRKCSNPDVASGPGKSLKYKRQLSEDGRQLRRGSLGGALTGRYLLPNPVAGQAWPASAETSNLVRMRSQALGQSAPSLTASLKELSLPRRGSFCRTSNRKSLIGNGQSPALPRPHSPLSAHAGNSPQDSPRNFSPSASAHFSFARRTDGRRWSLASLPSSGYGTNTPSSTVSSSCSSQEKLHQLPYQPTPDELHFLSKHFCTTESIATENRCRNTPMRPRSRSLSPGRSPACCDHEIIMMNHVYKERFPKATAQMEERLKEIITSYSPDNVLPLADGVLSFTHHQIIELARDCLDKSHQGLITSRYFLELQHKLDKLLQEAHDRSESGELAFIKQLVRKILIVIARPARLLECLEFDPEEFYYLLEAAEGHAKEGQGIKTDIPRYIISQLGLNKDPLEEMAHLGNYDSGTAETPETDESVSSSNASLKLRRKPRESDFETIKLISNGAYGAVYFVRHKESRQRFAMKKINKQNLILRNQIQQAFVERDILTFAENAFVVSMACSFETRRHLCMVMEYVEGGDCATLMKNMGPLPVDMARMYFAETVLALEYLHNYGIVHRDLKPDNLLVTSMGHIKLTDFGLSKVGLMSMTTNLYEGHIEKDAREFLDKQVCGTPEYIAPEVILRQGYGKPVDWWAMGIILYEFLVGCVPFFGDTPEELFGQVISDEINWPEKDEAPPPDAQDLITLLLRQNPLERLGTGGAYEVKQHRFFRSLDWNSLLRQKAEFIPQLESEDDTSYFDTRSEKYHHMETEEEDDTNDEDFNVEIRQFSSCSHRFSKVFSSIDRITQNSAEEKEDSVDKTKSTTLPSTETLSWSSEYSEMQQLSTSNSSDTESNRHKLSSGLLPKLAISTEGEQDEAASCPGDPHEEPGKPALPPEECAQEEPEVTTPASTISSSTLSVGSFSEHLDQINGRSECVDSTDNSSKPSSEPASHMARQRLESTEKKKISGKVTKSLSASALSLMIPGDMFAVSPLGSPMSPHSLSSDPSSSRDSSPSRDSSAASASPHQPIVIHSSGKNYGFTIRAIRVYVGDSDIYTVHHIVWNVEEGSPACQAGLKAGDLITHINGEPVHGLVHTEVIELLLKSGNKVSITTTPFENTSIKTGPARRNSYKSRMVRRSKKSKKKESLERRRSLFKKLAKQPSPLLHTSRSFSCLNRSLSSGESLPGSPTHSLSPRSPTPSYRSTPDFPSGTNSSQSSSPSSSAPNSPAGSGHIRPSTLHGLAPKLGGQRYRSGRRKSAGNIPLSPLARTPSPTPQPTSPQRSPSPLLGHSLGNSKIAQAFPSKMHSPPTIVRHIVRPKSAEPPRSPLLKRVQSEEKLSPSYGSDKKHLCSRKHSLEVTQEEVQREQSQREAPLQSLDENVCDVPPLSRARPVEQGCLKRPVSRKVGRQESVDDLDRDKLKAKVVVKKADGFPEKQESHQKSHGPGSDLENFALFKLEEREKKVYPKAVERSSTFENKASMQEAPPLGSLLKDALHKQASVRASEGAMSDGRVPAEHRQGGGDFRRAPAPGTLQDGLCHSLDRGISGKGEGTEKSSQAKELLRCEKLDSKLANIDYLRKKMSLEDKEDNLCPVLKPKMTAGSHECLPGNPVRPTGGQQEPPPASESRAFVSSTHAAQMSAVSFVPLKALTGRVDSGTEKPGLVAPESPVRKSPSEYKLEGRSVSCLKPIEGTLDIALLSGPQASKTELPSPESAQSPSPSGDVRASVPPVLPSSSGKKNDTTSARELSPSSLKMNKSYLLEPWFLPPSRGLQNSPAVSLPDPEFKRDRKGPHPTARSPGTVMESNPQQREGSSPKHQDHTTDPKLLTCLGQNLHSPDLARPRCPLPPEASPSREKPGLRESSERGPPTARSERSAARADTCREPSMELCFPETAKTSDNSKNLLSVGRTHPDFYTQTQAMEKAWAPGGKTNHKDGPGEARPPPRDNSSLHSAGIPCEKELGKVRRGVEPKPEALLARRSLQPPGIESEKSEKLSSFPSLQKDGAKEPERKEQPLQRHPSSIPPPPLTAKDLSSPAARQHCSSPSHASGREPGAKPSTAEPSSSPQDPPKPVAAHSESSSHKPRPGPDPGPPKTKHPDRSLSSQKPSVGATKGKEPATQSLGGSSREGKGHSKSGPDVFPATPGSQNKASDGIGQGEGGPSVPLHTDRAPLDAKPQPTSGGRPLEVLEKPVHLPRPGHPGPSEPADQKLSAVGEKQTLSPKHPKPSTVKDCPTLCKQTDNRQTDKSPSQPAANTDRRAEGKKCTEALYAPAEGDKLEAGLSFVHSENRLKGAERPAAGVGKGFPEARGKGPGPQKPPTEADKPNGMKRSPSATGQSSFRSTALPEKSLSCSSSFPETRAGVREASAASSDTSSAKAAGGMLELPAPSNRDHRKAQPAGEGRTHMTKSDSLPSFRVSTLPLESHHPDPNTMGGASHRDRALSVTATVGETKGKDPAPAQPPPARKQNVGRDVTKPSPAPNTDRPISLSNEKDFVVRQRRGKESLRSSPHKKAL
compound,measurement,setting,value
"Cc1c[nH]c(-c2cnc(NCCNc3ccc(C#N)cn3)nc2-c2ccc(Cl)cc2Cl)n1 [GSK-3β inhibitor, CHIR-99021]",Mast4 degradation,[1],significantly delayed
same,Mast4 expression,[2],dramatically increased
CC(C)C[C@@H](C=O)NC(=O)[C@H](CC(C)C)NC(=O)[C@H](CC(C)C)NC(=O)OCc1ccccc1 [MG-132] (Cbz-Leu-Leu-Leu-aldehyde),Mast4-induced Sox9 degradation,[3],restored
Smurf1,Smurf1-mediated Mast4 degradation,[4],mutation of PY-like motif in the kinase domain of Mast4 (P628A/Y634A) prevented Smurf1-mediated Mast4 degradation
TGF-β1: TGF-β1 protein (R&D Systems) used to treat cells,Mast4 mRNA expression level,[5],gradual reduction
same,mRNA and protein expression of Mast4,[6],markedly suppressed
same,Smad3 occupancy at the Mast4 promoter,[7],significantly increased
same,Mast4 promoter activity,[8],suppressed
